This is an account of results in patent US9617259B2, “Histone deacetylase inhibitors and compositions and methods of use thereof” (CHDI Foundation, Inc., priority 2013, dated 2017).

Some results are limits rather than exact numbers.

By IC50 is commonly meant the concentration that inhibits the measured activity by half.

Chain of human catalytic domain HDAC4 protein (amino acids 648-1032) (P56524 648-1032): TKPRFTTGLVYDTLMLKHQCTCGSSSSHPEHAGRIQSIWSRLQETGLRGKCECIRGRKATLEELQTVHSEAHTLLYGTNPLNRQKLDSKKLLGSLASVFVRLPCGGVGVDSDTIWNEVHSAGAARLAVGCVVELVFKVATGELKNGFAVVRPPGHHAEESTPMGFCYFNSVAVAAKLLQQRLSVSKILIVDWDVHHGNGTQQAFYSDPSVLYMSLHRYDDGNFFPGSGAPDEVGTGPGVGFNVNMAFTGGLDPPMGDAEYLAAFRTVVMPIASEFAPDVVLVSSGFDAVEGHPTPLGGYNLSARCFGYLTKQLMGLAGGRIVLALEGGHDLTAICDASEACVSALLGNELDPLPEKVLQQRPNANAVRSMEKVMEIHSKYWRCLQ

The experiment addresses human catalytic domain HDAC4 protein (amino acids 648-1032) (Homo sapiens (Human), UniProt P56524). The experiment can be described thus: Inhibition of HDAC4 catalytic domain enzymatic activity, fluorogenic substrate Boc-Lys(Tfa)-AMC. Particulars: read-out: Biochemical HDAC-4 IC50. From the text:
Analysis of Inhibition of HDAC4 with Class IIa Histone Deacetylase (HDAC) Inhibitors
The potency of Class IIa Histone Deacetylase (HDAC) inhibitors is quantified by measuring the Histone Deacetylase 4 (HDAC4) catalytic domain enzymatic activity using the fluorogenic substrate, Boc-Lys(Tfa)-AMC. The substrate is deacetylated to Boc-Lys-AMC by HDAC4. Cleavage by trypsin results in the release of the fluorophore AMC from the deacetylated substrate. The fluorescence of the sample is directly related to the histone deacetylase activity in the sample.
Serial dilutions of the HDAC inhibitors and control reference compound (1-(5-(3-((4-(1,3,4-oxadiazol-2-yl)phenoxy)methyl)-1,2,4-oxadiazol-5-yl)thiophen-2-yl)-2,2,2-trifluoroethanone) are made by first resuspending the lyophilized compound to a final concentration of 10 mM in 100% dimethyl sulfoxide (DMSO). Stocks of 60 μl aliquots of the 10 mM compound in DMSO are prepared and stored at −20° C. From one stock aliquot of each compound to be tested and the reference compound, a 16-point serial dilution is prepared according to
2 μl (200×) of each diluted solution and each control (full activity: 100% DMSO alone or full inhibition 1 mM) is stamped into V-bottomed polypropylene 384-well compound plates using either the Bravo (384-well head from Agilent) or 12.5 μl 16-channel Matrix multi-channel pipette (Matrix Technologies Ltd).
A working solution of enzyme is prepared from a 500 μg/ml stock aliquot of HDAC4 catalytic domain (thawed on ice) diluted to 0.2 μg/ml with assay buffer (50 mM Tris-HCl, 137 mM NaCl, 2.7 mM KCl, and 1 mM MgCl2 at pH 8 and equilibrated to room temperature) just prior to the addition of the enzyme to the assay.
5× (50 μM) substrate is prepared just prior to the addition to the assay. A 1 mM substrate stock is made by diluting a 100 mM Boc-Lys(Tfa)-AMC in DMSO solution 1:100 by adding it drop-wise to assay buffer (equilibrated to room temperature) while vortexing at slow speed to prevent precipitation. The 5× substrate is prepared by diluting the 1 mM substrate solution 1:20 by adding it drop-wise to assay buffer (equilibrated to room temperature) while vortexing at slow speed to prevent precipitation.
3× (30 μM) Developer/Stop Solution is prepared just prior to addition to the plate by diluting a stock solution of 10 mM reference compound 1:333 in 25 mg/ml trypsin (PAA Laboratories Ltd.) equilibrated to room temperature.
5 μl of each solution of 1:20 diluted compound from above is transferred to a clear bottomed, black, 384-well assay plate using the Bravo or the Janus (384-well MDT head from Perkin Elmer). Using a 16-channel Matrix multi-channel pipette, 35 μl of the working solution of HDAC4 catalytic domain enzyme (0.2 μg/ml in assay buffer) is transferred to the assay plate. The assay is then started by adding 10 μl of 5× (50 μM) substrate to the assay plates using either the Bravo, Janus or 16-channel Matrix multi-channel pipette. The assay plate is then shaken for two minutes on an orbital shaker at 900 rpm (rotations per minute). Next the plate is incubated for 15 minutes at 37° C. The reaction is stopped by adding 25 al of 3× (30 μM) developer/stop solution to the assay plates using either the Bravo, Janus or a 16-channel Matrix multi-channel pipette. Assay plates are then shaken for 5 minutes on an orbital shaker at 1200 rpm. Next, the assay plates are incubated at 37° C. for 1 hour in a tissue culture incubator. Finally, the fluorescence is measured (Excitation: 355 nm, Emission: 460 nm) using PerkinElmer EnVision in top read mode.
For the compound `Cc1c(F)cccc1[C@]1(C(=O)NO)C=C(c2ccccc2)CC1` [Example 1, (R)-1-(3-fluoro-2-methylphenyl)-N-hydroxy-3-phenylcyclopent-2-enecarboxamide], the IC50 turned out to be 7600 nM. Next, `Cc1c(F)cccc1[C@@]1(C(=O)NO)C=C(c2ccccc2)CC1` [Example 2, (S)-1-(3-fluoro-2-methylphenyl)-N-hydroxy-3-phenylcyclopent-2-enecarboxamide]: 20 nM; `Cc1ccccc1C1=C[C@@](C(=O)NO)(c2cccc(F)c2C)CC1` [Example 3, (R)-1-(3-fluoro-2-methyl-phenyl)-N-hydroxy-3-(o-tolyl)cyclopent-2-ene-1-carboxamide]: 230 nM; `Cc1ccccc1C1=C[C@](C(=O)NO)(c2cccc(F)c2C)CC1` [Example 4, (S)-1-(3-fluoro-2-methyl-phenyl)-N-hydroxy-3-(o-tolyl)cyclopent-2-ene-1-carboxamide]: 20 nM. Next, `Cc1c(F)cccc1[C@]1(C(=O)NO)C=C(c2cncc(F)c2)CC1` [Example 5, (R)-1-(3-fluoro-2-methylphenyl)-3-(5-fluoropyridin-3-yl)-N-hydroxycyclopent-2-enecarboxamide]: 670 nM. Next, `Cc1c(F)cccc1[C@@]1(C(=O)NO)C=C(c2cncc(F)c2)CC1` [Example 6, (S)-1-(3-fluoro-2-methylphenyl)-3-(5-fluoropyridin-3-yl)-N-hydroxycyclopent-2-enecarboxamide]: 10 nM; `Cc1c(F)cccc1[C@]1(C(=O)NO)C=C(c2cnccn2)CC1` [Example 7, (R)-1-(3-fluoro-2-methylphenyl)-N-hydroxy-3-(pyrazin-2-yl)cyclopent-2-ene carboxamide]: above 50000 nM; `Cc1c(F)cccc1[C@@]1(C(=O)NO)C=C(c2cncc(Cl)c2)CC1` [Example 11, (S)-3-(5-chloropyridin-3-yl)-1-(3-fluoro-2-methylphenyl)-N-hydroxycyclopent-2-enecarboxamide]: 20 nM. With `Cc1c(F)cccc1[C@@]1(C(=O)NO)C=C(c2ccc3nccnc3c2)CC1` [Example 12, (S)-1-(3-fluoro-2-methylphenyl)-N-hydroxy-3-(quinoxalin-6-yl)cyclopent-2-enecarboxamide], the IC50 came to 10 nM.

In the case of `Cc1c(F)cccc1[C@@]1(C(=O)NO)C=C(c2ccnc(C(F)(F)F)c2)CC1` [Example 13, (S)-1-(3-fluoro-2-methylphenyl)-N-hydroxy-3-(2-(trifluoromethyl)pyridin-4-yl)cyclopent-2-enecarboxamide], the IC50 was found to be 40 nM. With `Cc1c(F)cccc1[C@@]1(C(=O)NO)C=C(c2cncnc2)CC1` [Example 14, (S)-1-(3-fluoro-2-methylphenyl)-N-hydroxy-3-(pyrimidin-5-yl)cyclopent-2-enecarboxamide], the IC50 is 30 nM. Next, `Cc1c(F)cccc1[C@@]1(C(=O)NO)C=C(c2ccc(F)cn2)CC1` [Example 15, (S)-1-(3-fluoro-2-methylphenyl)-3-(5-fluoropyridin-2-yl)-N-hydroxycyclopent-2-enecarboxamide]: 40 nM.

On to `Cc1c(F)cccc1[C@@]1(C(=O)NO)C=C(c2ccc(C(F)(F)F)nc2)CC1` [Example 16, (S)-1-(3-fluoro-2-methylphenyl)-N-hydroxy-3-(6-(trifluoromethyl)pyridin-3-yl)cyclopent-2-enecarboxamide], for which the IC50 turned out to be 20 nM. Next, `Cc1c(F)cccc1[C@@]1(C(=O)NO)C=C(c2cncc(C(F)(F)F)c2)CC1` [Example 17, (S)-1-(3-fluoro-2-methylphenyl)-N-hydroxy-3-(5-(trifluoromethyl)pyridin-3-yl)cyclopent-2-enecarboxamide]: 30 nM. In the case of `Cc1c(F)cccc1[C@@]1(C(=O)NO)C=C(c2cnn(C(F)F)c2)CC1` [Example 18, (S)-3-(1-(difluoromethyl)-1H-pyrazol-4-yl)-1-(3-fluoro-2-methylphenyl)-N-hydroxycyclopent-2-enecarboxamide], the IC50 amounted to 20 nM. Under `Cc1c(F)cccc1[C@@]1(C(=O)NO)C=C(c2cc(F)cnc2C2CC2)CC1` [Example 19, (S)-3-(2-cyclopropyl-5-fluoropyridin-3-yl)-1-(3-fluoro-2-methylphenyl)-N-hydroxycyclopent-2-enecarboxamide] stands 40 nM.

Regarding `Cc1c(F)cccc1[C@@]1(C(=O)NO)C=C(c2ccc3nc(C(F)(F)F)cnc3c2)CC1` [Example 20, (S)-1-(3-fluoro-2-methylphenyl)-N-hydroxy-3-(2-(trifluoromethyl)quinoxalin-6-yl)cyclopent-2-enecarboxamide], the IC50 was determined as 70 nM.

In the case of `Cc1c(F)cccc1[C@@]1(C(=O)NO)C=C(c2ccn3ccnc3c2)CC1` [Example 21, (S)-1-(3-fluoro-2-methylphenyl)-N-hydroxy-3-(imidazo[1,2-a]pyridin-7-yl)cyclopent-2-enecarboxamide], the IC50 was found to be 10 nM.

Consider `Cc1c(F)cccc1[C@@]1(C(=O)NO)C=C(c2ccc3onc(C)c3c2)CC1` [Example 22, (S)-1-(3-fluoro-2-methylphenyl)-N-hydroxy-3-(3-methylbenzo[d]isoxazol-5-yl)cyclopent-2-enecarboxamide], for which the IC50 came out at 30 nM.

As for `COc1ncc(C2=C[C@](C(=O)NO)(c3cccc(F)c3C)CC2)cc1F` [Example 23, (S)-1-(3-fluoro-2-methylphenyl)-3-(5-fluoro-6-methoxypyridin-3-yl)-N-hydroxycyclopent-2-enecarboxamide], the IC50 is 40 nM. Next, `Cc1c(F)cccc1[C@@]1(C(=O)NO)C=C(c2cnc(C3CC3)nc2)CC1` [Example 24, (S)-3-(2-cyclopropylpyrimidin-5-yl)-1-(3-fluoro-2-methylphenyl)-N-hydroxycyclopent-2-enecarboxamide]: 20 nM. Under `Cc1ccc(C2=C[C@](C(=O)NO)(c3cccc(F)c3C)CC2)cn1` [Example 25, (S)-1-(3-fluoro-2-methylphenyl)-N-hydroxy-3-(6-methylpyridin-3-yl)cyclopent-2-enecarboxamide] stands 10 nM; under `Cc1ncc(C2=C[C@](C(=O)NO)(c3cccc(F)c3C)CC2)cc1Cl` [Example 26, (S)-3-(5-chloro-6-methylpyridin-3-yl)-1-(3-fluoro-2-methylphenyl)-N-hydroxycyclopent-2-enecarboxamide], 10 nM. Under `Cc1c(F)cccc1[C@@]1(C(=O)NO)C=C(c2ccnn2C)CC1` [Example 27, (S)-1-(3-fluoro-2-methylphenyl)-N-hydroxy-3-(1-methyl-1H-pyrazol-5-yl)cyclopent-2-enecarboxamide] stands 20 nM; under `Cc1c(F)cccc1[C@@]1(C(=O)NO)C=C(c2cnn(CC(F)(F)F)c2)CC1` [Example 28, (S)-1-(3-fluoro-2-methylphenyl)-N-hydroxy-3-(1-(2,2,2-trifluoroethyl)-1H-pyrazol-4-yl)cyclopent-2-enecarboxamide], 20 nM.

In the case of `Cc1c(F)cccc1[C@@]1(C(=O)NO)C=C(c2cccc3cnsc23)CC1` [Example 29, (S)-3-(benzo[d]isothiazol-7-yl)-1-(3-fluoro-2-methylphenyl)-N-hydroxycyclopent-2-enecarboxamide], the IC50 was 30 nM. Next, `O=C(NO)C1(c2ccccc2)CC=CC1` [Example 30, N-hydroxy-1-phenyl-cyclopent-3-enecarboxamide]: 12300 nM; `O=C(NO)C1(c2ccccc2F)CC=CC1` [Example 31, 1-(2-fluorophenyl)-N-hydroxy-cyclopent-3-enecarboxamide]: 8300 nM; `Cc1c(F)cccc1[C@@]1(C(=O)NO)C=C(C2CC2)CC1` [Example 32, (S)-3-cyclopropyl-1-(3-fluoro-2-methylphenyl)-N-hydroxycyclopent-2-enecarboxamide]: 40 nM.
